Measurements reported in US6916933B2, “4-pyridinyl-n-acyl-l-phenylalanines” (Hoffman-La Roche Inc., priority 1999, dated 2005).

Molecular target: T1, alpha4-beta7 on RPMI 8866 cells binding to MadCAM (Homo sapiens, UniProt P13612+P26010)
T1 construct: endogenous in cells; host or cells: RPMI 8866 cells
T1 sequence (P13612 34-1032): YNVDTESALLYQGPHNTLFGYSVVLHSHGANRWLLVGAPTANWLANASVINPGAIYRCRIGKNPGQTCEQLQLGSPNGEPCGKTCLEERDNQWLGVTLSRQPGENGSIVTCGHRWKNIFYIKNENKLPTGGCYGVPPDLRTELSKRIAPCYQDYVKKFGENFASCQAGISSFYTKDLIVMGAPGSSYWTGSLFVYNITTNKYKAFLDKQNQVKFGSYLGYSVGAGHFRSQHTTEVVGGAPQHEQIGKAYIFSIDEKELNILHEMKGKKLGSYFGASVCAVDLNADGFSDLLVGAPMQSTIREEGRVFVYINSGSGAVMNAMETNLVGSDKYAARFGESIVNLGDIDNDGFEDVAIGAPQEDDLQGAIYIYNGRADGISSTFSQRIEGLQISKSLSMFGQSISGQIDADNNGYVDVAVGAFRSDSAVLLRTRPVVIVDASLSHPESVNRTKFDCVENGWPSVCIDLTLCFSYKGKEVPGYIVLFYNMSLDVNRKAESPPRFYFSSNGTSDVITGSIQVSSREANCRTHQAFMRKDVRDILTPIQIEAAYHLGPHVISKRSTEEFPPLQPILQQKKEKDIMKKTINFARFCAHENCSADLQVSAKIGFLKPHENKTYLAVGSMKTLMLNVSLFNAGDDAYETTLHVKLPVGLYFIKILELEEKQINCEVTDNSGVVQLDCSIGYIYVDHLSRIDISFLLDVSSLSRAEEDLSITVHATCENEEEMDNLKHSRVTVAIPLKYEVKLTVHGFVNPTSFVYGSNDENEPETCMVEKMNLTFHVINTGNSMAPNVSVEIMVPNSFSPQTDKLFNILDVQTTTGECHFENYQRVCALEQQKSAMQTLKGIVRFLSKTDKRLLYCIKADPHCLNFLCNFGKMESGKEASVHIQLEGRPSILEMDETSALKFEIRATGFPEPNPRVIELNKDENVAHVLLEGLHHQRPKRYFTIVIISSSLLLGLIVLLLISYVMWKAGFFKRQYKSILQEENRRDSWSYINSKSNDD
T1 sequence (P26010 20-798): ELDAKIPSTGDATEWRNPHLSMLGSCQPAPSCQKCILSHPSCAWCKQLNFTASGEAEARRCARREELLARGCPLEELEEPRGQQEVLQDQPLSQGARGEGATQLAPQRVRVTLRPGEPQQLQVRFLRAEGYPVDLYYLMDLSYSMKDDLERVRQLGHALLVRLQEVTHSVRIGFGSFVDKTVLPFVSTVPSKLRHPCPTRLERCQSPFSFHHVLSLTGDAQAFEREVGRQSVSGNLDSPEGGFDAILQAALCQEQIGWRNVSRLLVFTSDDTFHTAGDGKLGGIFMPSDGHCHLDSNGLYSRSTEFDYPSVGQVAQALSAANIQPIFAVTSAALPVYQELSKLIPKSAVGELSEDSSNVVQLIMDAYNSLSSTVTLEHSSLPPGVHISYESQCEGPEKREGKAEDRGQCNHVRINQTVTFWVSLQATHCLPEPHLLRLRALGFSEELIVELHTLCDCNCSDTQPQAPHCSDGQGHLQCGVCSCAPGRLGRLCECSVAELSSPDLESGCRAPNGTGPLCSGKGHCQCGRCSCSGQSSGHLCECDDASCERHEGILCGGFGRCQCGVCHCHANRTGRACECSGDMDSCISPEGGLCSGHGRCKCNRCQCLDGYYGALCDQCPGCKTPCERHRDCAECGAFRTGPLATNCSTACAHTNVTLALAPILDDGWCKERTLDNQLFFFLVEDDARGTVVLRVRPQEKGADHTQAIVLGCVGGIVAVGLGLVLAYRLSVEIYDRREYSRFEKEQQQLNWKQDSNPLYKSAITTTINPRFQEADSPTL
Experiment: Alpha4-Beta7 Assay (MadCAM/RPMI 8866 cell adhesion)
Type: cell-based
Details: calcein labeled RPMI 8866 cells, MadCAM coated plates
Experimental: Alpha4-Beta7 Assay Protocol
Two weeks to one day prior to the assay, Nunc high-binding F96 Maxisorp immuno plates, #442404 or #439454, were coated with 25 ng/well (0.25 μg/ml) MadCAM in a volume of 100 μl/well. The plates were covered with sealer and wrapped in saran wrap followed by incubation in the refrigerator for at least 24 hours. The coating buffer employed was: 10 mM carbonate/bicarbonate buffer made up from: 0.8 g/L sodium carbonate and 1.55 g/L sodium bicarbonate adjusted to pH 9.6 with 1 N HCl.
Assay buffers consisted of the following: • Wash Buffer: 0.05% Tween 20 in PBS • Blocking Buffer: 1% Nonfat Dry Milk in PBS • Labeling Buffer: PBS • Cell Buffer: RPMI 1640 medium (no additives) • Binding Buffer: 1.5 mM CaCl2 • 0.5 mM MnCl2 • 50 mM TRIS-HCl; add NaOH dropwise to pH 7.5 • Bring to volume in H2O • Adjust to pH 7.5 • Dilution Buffer: 4% DMSO in Binding Buffer
Plates were washed 2× with wash buffer and then blocked at room temperature for at least 1 hour with Blocking Buffer. Sealed plates were sometimes blocked overnight in the refrigerator. Plates were then washed with PBS and hand blotted dry. Remaining liquid was aspirated from the wells.
Sufficient RPMI 8866 cells were removed from stock for assay (2×10^6 cells/ml×10 ml/plate×number of plates) and placed in a centrifuge tube. The tubes were filled to volume with PBS and were spun at 200×G for 8 minutes. The buffer was poured off and the cells were resuspended to 10×10^6/ml in PBS and a stock solution of calcein in DMSO (5 mg/mL) was added at 5 μl/ml of cell suspension. The suspension was incubated for 30 minutes at 37° C. in dark. The cells were then washed with PBS. The PBS was poured off and the cells resuspended in cell buffer at a concentration of 2×10^6 cells/mL for plating in the assay.
Stock solution of test compounds at 25× first dilution desired in 100% DMSO were prepared. First dilutions for the standard, as well as test compounds, were 1:25 into straight Binding Buffer, while the remaining serial dilutions were into Dilution Buffer (Binding Buffer/4% DMSO). Stock concentrations and dilutions of compounds for screening were determined by anticipated activity.
For the assay, 129 μl Binding Buffer was plated into first row of wells and 100 μl Dilution Buffer was plated into remaining wells. A 5.4 μl aliquot of each compound was pipetted into appropriate, labeled wells, in triplicate. The compounds were next diluted down the plate (34 μl+100 μl=>4-fold dilution). For controls, 100 μl of Dilution Buffer+100 μl Cell Buffer were plated into the nonspecific background wells (no cells, no compound) and 100 μl Dilution Buffer+100 μl cells were plated into the total binding wells (no compound=100% binding). Labeled cells at 2×10^6 cells/ml, 100μl/well (=2×10^5 cells/well) were added to each well containing compound. The plates were sealed and incubated in the dark for 45 minutes at room temperature. Following incubation, unbound cells were removed by adding 150 μl PBS/well. The plates were inverted, blotted onto paper towels and washed by gently adding 200 μl PBS to wells and blotting again. Remaining buffer was carefully aspirated from the wells. A final 100 μl PBS was added to each well.
The plates were then read for fluorescence intensity on a Cytofluor 2300 (Millipore) fluorecence measurement system (excitation=485 nm, emission=530 nm). IC50s of each compound were determined by linear regression analysis.

IC50 | SMILES
< 10 µM | Cc1cccc(Cl)c1C(=O)N[C@@H](Cc1ccc(-c2cccn(C)c2=O)cc1)C(=O)O [Example 30, N-[(2-chloro-6-methylphenyl)carbonyl]-4-(1-methyl-2-oxo-3-pyridinyl)-L-phenylalanine]
< 10 µM | Cc1ccn(C)c(=O)c1-c1ccc(C[C@H](NC(=O)c2c(Cl)cccc2Cl)C(=O)O)cc1 [Example 31, N-[(2,6-dichlorophenyl)carbonyl]-4-(1,4-dimethyl-2-oxo-3-pyridinyl)-L-phenylalanine]
< 10 µM | Cc1cccc(Cl)c1C(=O)N[C@@H](Cc1ccc(-c2c(C)ccn(C)c2=O)cc1)C(=O)O [Example 32, N-[(2-chloro-6-methylphenyl)carbonyl]-4-(1,4-dimethyl-2-oxo-3-pyridinyl)-L-phenylalanine]
< 0.1 µM | Cc1cc(C(F)(F)F)c(-c2ccc(C[C@H](NC(=O)c3c(Cl)cccc3Cl)C(=O)O)cc2)c(=O)n1C [Example 33, N-[(2,6-dichlorophenyl)carbonyl]-4-[1,6-dimethyl-4-(trifluoromethyl)-2-oxo-3-pyridinyl]-L-phenylalanine]
< 10 µM | CCc1cccc(C)c1C(=O)N[C@@H](Cc1ccc(-c2c(C(F)(F)F)cc(C)n(C)c2=O)cc1)C(=O)O [Example 34, N-[(2-ethyl-6-methylphenyl)carbonyl]-4-[1,6-dimethyl-4-(trifluoromethyl)-2-oxo-3-pyridinyl]-L-phenylalanine]
< 5 µM | Cc1cccc(C(C)C)c1C(=O)N[C@@H](Cc1ccc(-c2c(C(F)(F)F)cc(C)n(C)c2=O)cc1)C(=O)O [Example 35, N-[(2-(1-methylethyl)-6-methylphenyl)carbonyl]-4-[1,6-dimethyl-4-(trifluoromethyl)-2-oxo-3-pyridinyl]-L-phenylalanine]
< 10 µM | Cc1cccc(Cl)c1C(=O)N[C@@H](Cc1ccc(-c2c(C(F)(F)F)cc(C)n(C)c2=O)cc1)C(=O)O [Example 36, N-[(2-chloro-6-methylphenyl)carbonyl]-4-[1,6-dimethyl-4-(trifluoromethyl)-2-oxo-3-pyridinyl]-L-phenylalanine]
< 10 µM | COCCC1(C(=O)N[C@@H](Cc2ccc(-c3c(C(F)(F)F)cc(C)n(C)c3=O)cc2)C(=O)O)CCCC1 [Example 37, N-[[1-(2-methoxyethyl)cyclopentyl]carbonyl]-4-[1,6-dimethyl-4-(trifluoromethyl)-2-oxo-3-pyridinyl]-L-phenylalanine]
